From patent US7928095B2, “Treatment of resistant or refractory cancers with multi-arm polymeric conjugates of 7-ethyl-10-hydroxycamptothecin” (Enzon Pharmaceuticals, Inc., priority 2007, dated 2011)

Legend:
[1] = test system: refractory human HT-29 colorectal tumor; assay: Therapeutic efficacy in CPT-11 refractory human HT-29 colorectal tumor xenografted nude mice; assay type: in vivo
Experimental: Therapeutic efficacy of four-arm PET-Gly-(7-ethyl-10-hydroxycamptothecin) against a refractory human HT-29 colorectal tumor grown in nude mice was determined. […] When tumors reached an average volume of 100 mm^3, mice were treated with CPT-11 (40 mg/kg/dose; q2d×4). Mice were monitored for tumor growth. […] These mice were selected, randomized and divided into two groups. […] The drugs were administered intravenously via the tail vein.
The data in FIG. 1 represent mean±standard deviation (n=7).

[2] = test system: Human HT-29 colorectal tumors; assay: Therapeutic efficacy in HT-29 colorectal tumor xenografted mice, second round treatment after CPT-11; assay type: in vivo, nude mice
Experimental: When tumors reached an average volume of 100 mm^3, mice were treated with CPT-11 (40 mg/kg/dose; q2d×4). Mice were monitored for tumor growth. […] One group was further treated with MTD of CPT-11 (40 mg/kg/dose; q2d×5) and the other group was treated with MTD of four-arm ^40KPEG-Gly-(7-ethyl-10-hydroxycamptothecin) (10 mg/kg/dose q2d×5) starting day 16. The drugs were administered intravenously via the tail vein.
The data in FIG. 2 represent mean±standard deviation (n=10).

[3] = test system: CPT-refractory cell line (CEM/C2); settings: CEM/C2 cells, 2 days at 37° C., MTS; FIG. 3
Experimental: CPT-refractory cell line (CEM/C2) and the corresponding non-refractory parent cell line (CEM) were treated with PEG-Gly-(7-ethyl-10-hydroxycamptothecin), 7-ethyl-10-hydroxycamptothecin, and CPT-11. The CEM/C2 and CEM were obtained from NCI. The CEM cell lines are acute lymphoblastic leukemia cell lines. The in vitro cytotoxicity of each drug was determined using a MTS assay. […] At the end of the incubation, MTS dye was added and incubated for 2 to 3 hours at 37° C. and formation of a colored product (formazan) was measured at 490 nm. The % viability at each drug concentration was calculated as [OD test samples−background]/[OD controls (no treatment)−background]. Sigmoidal dose response curves were generated by plotting Log (Drug) as a function of % viability (survival) and IC50 values were calculated using the GraphPad Prism software.

Row | Molecule | animals sacrificed due to excessive tumor burden (>1,650 mm^3) ([1]; by day 42) [%] | animals sacrificed due to excessive tumor burden (>1,650 mm^3) ([1]; by day 54) [%] | animals sacrificed due to excessive tumor burden ([2]; as of day 61) [%] | mice with tumors <1,650 mm^3 ([1]; by day 72) [%] | tumor volume decreased compared to day 15 ([1]; day 42, CPT-11 refractory mice, 10 mg/kg/dose q2d×5 i.v. starting day 16) [%] | animals sacrificed ([1]; on day 63, n=7) | tumor volume increased compared to day 1 ([2]; day 54, CPT-11 sensitive mice, second round treatment q2d×5 i.v. starting day 16) [%] | deaths recorded ([2]; on day 61) | potency relative to CPT-11 (cytotoxicity IC50) [3]
1 | CCc1c2c(nc3ccc(OC(=O)N4CCC(N5CCCCC5)CC4)cc13)-c1cc3c(c(=O)n1C2)COC(=O)[C@]3(O)CC [CPT-11, Irinotecan, reference compound] | 29 | 100 | 60 | – | – | – | – | – | –
2 | four-arm ^40KPEG-Gly-(7-ethyl-10-hydroxycamptothecin) [compound 9] | – | – | – | 58 | 25 | 1 of 7 | 193 | No deaths | about 10 fold
